Assay results reported in US10786522B2, “Compositions that include anthocyanidins and methods of use” (Maqui NewLife S.A., priority 2009, dated 2020).

Assays:
Human T cells [1] = experiment: IL-2 production in freshly isolated human T cells (ELISA); type: cell-based; conditions: for Average IL-2 production / Percentage compared to the control (IL-2): 48 hrs
Experimental: (§1) The effect of delphinidin on IL-2 and INF-γ production was also assayed on freshly isolated human T cells. Human T cells were isolated from blood of healthy volunteers using Lymphoprep reagent. T cells (1×10^6) in RMPI medium were incubated for 48 hrs at 37° C., in 5% CO2 in the presence of a vehicle control solution; 50 μM delphinidin; 50 μM delphinidin+1 μM BTP-2; 50 μM delphinidin+5 μM BTP-2; 50 μM delphinidin+10 μM BTP-2; 1 μM BTP-2; 5 μM. BTP-2; or 10 μM BTP-2. Then the supernatants were collected and analyzed using commercial ELISA kit (Becton Dickinson, USA) to measure IL-2 and INF-γ production according to the supplier's directions.
We evaluated the effect of a combination of delphinidin and andandrographolide on IL-2 production in both freshly harvested human T cells and the Jurkat cell line. Andrographolide was prepared according to the method described in Example 4. Human T cells were isolated from blood of healthy volunteers using Lymphoprep reagent. T cells (1×10^6) in RMPI medium were incubated for 48 hrs at 37° C., in 5% CO2 in the presence of a vehicle control solution; 5 nM andrographolide; 50 μM delphinidin; or 5 nM andrographolide plus 50 μM delphinidin. Then the supernatants were collected and analyzed using commercial ELISA kit (Becton Dickinson, USA) to measure IL-2 production according to the supplier's directions.

Jurkat T cells [2] = experiment: IL-2 production in Jurkat T cells (ELISA); type: cell-based
Experimental: (§2) 2×10^6 Jurkat T cells in RPMI medium were incubated for 48 hrs at 37° C., in 5% CO2 in the presence of vehicle control solution; or the T cell activator, phorbol 12-myristate 13-acetate/lonomycin (PMA/Io 2 ng/ml 1 uM); 50 μM of delphinidin; 50 μM delphinidin+PMA/Io; 50 μM cyanidin; or 50 μM cyaniding+PMA/Io. Then the supernatants were collected and IL-2 production was analyzed by ELISA using a commercial kit (Becton Dickinson, USA) according to the supplier's directions.
Then the supernatants were collected and analyzed using commercial ELISA kit (Becton Dickinson, USA) to measure IL-2 production according to the supplier's directions.
Jurkat T cells were incubated in either a vehicle control solution; 5 nM andrographolide; 50 μM delphinidin; or 5 nM andrographolide plus 50 μM delphinidin.

Jurkat T cells [3] = experiment: INF-γ production in Jurkat T cells (ELISA); type: cell-based; conditions: 48 hrs; for Average INF-γ production / Percentage vs. control (INF-γ): delphinidin 50 μM, cyanidin 50 μM, PMA/Io 2 ng/ml 1 uM
Experimental: as §2, with “We also explored the effect of delphinidin and cyanidin on Interferon-gamma (INF-γ) production in Jurkat T cells. 2×10^6” for “2×10^6”, “CO2. The samples were incubated” for “CO2”, “13-acetate/Ionomycin” for “13-acetate/lonomycin”, “IFN-γ” for “IL-2”

Human T cells [4] = experiment: INF-γ production in freshly isolated human T cells (ELISA); type: cell-based
Experimental: as §1

Jurkat T cells [5] = experiment: Ca2+ fluxes in FURA 2-AM-loaded Jurkat T cells (spectrofluorimetry, medium with CaCl2); type: cell-based
Experimental: We evaluated the effect of delphinidin on intracellular calcium release in Jurkat T cells. Extracts were prepared according to the method of Example 1. Jurkat T cells in Hanks' Balanced Salt Solution (HBSS) medium (Invitrogen) with 0.9 mM of CaCl2 were loaded with Fura-2-acetoxymethyl ester (2.5 uM FURA 2-AM) for 30 min at 37° C., washed and incubated in 10 μM, 50 μM, and 100 μM delphinidin. The fluxes of Ca^2+ were measured as ratio of excitation at 340 and 380 nm, and emission at 509 nm, for 300 seconds, at 37° C. in a spectrofluorimeter (LS55, PerkinElmer).

Jurkat T cells [6] = experiment: Calcium release in Jurkat T cells in HBSS calcium free medium; type: cell-based
Experimental: To measure calcium release, 4×10^6 FURA 2-AM-loaded Jurkat T cells were incubated in HBSS calcium free medium as decribed in Example 6. The cells were incubated in 50 uM delphinidin, or in 50 uM delphinidin and 10 μM N-[4-[3,5-bis(trifluoromethyl)-1H-pyrazol-1-yl]phenyl]-4-methyl-1,2,3-thiadiazole-5-carboxamide (BTP-2, a Store-Operated Calcium Entry (SOCE) inhibitor). The release of Ca^2+ was measured as ratio of excitation at 340 and 380 nm, and emission at 509 nm, for 200 seconds, at 37° C., in a spectrofluorimeter (LS55, PerkinElmer).
(§3) 4×10^6 FURA 2-AM-loaded Jurkat T cells were incubated in HBSS calcium free medium. The cells were then incubated in 50 uM delphinidin and the fluxes of Ca^2+ were measured as ratio of excitation at 340 and 380 nm, and emission at 509 nm, at 37° C. in a spectrofluorimeter (LS55, PerkinElmer).
4×10^6 FURA 2-AM-loaded Jurkat T cells were incubated in HBSS calcium free medium. The cells were then treated with vehicle alone or 50 or 100 uM U73122 for 10 minutes prior to incubation in 50 uM delphinidin. Ca^2+ flux was measured as ratio of excitation at 340 and 380 nm, and emission at 509 nm, at 37° C. in a spectrofluorimeter (LS55, PerkinElmer).

Jurkat T cells [7] = experiment: IL-2 production in Jurkat T cells (ELISA); type: cell-based; conditions: Table 9; 48 hrs; delphinidin 50 μM, CsA
Jurkat T cells [8] = experiment: Calcium entry (SOCE) in Jurkat T cells after addition of CaCl2; type: cell-based; conditions: 0.9 mM CaCl2 added after 200 seconds; delphinidin 50 μM, BTP-2 10 μM
Experimental: To measure calcium entry after 200 seconds, when the levels of calcium returned to the baseline, 0.9 mM of CaCl2 was added, and the fluxes of Ca^2+ were measured as ratio of excitation ratio at 340 and 380 nm, and emission at 509 nm in a spectrofluorimeter during 150 seconds.
as §3, with “were” for “were then”, “delphinidin or 50 uM delphinidin plus 10 μM BTP-2” for “delphinidin”

PPAR-γ = experiment: PPAR-γ-Luc reporter assay in HL-60 cells; type: cell-based, Human; conditions: control substances, 12 h, concentration not given
Experimental: We examined the effect of delphindin-rich anthocyanidins on PPAR-γ activation. HL-60 cells in IMDM medium were transfected with the reporter vectors PPAR-γ-Luc (5 μg) (Panomics) and TK-RL (1 μg) (Promega) using Fugene 6 reagent (Roche), and cultured for 24 hr. Then, the cells were incubated for 12 h in 0.175, 1.75, or 17.5 μg/ml of delphindin-rich anthocyanidins, phorbol myristate acetate (PMA), 15-deoxi-d 12,14-prostaglandin J2 (PGj2), or tumor necrosis factor alpha (TNFα) as controls. Luciferase activity was measured using the Dual-Luciferase Reporter Assay kit (DLR) from Promega in a luminometer (Luminoskan).

[9] = Table 10, andrographolide 5 nM, delphinidin 50 μM
[10] = andrographolide 5 nM, delphinidin 50 μM
[11] = Table 11, andrographolide 5 nM, delphinidin 50 μM
[12] = Table 5, 48 hrs, delphinidin 50 μM, cyanidin 50 μM, PMA/Io 2 ng/ml 1 uM
[13] = 48 hrs, 50 μM delphinidin alone
[14] = calcium free medium, delphinidin 50 μM, BTP-2 10 μM

## C=C1CC[C@@H]2[C@](C)(CO)[C@H](O)CC[C@@]2(C)[C@@H]1C/C=C1/C(=O)OC[C@H]1O [andrographolide]
Human T cells [1]; [9]
  Average IL-2 production: 85 pg/mL
  Percentage compared to the control (IL-2): 212.5%
Human T cells [1]; [10]
  IL-2 levels higher (Table 10): 112%
Jurkat T cells [2]; [11]
  Average IL-2 production: 0.0140 Abs 450 nm
  Percentage compared to the control (IL-2): 84.8%

## Oc1cc(O)c2cc(O)c(-c3ccc(O)c(O)c3)[o+]c2c1 [cyanidin, Cyanidin]
Jurkat T cells [2]; 50 μM, 48 hrs
  IL-2 lower than control cells: 10%
Jurkat T cells [2]; [12]
  Average IL-2 production: 45 pg/mL
  Percentage vs. control (IL-2): 90%
Jurkat T cells [3]; 50 μM
  INF-γ levels relative to control cells, result in words: about the same levels
Jurkat T cells [3]
  Average INF-γ production: 8 pg/mL
  Percentage vs. control (INF-γ): 100%

## Oc1cc(O)c2cc(O)c(-c3cc(O)c(O)c(O)c3)[o+]c2c1 [delphinidin, Delphinidin]
Human T cells [4]; 50 μM delphinidin
  INF-γ levels higher than untreated control cells: 950%
Human T cells [4]; [13]
  Average INF-γ production: 3900 pg/mL
  Percentage vs. control (INF-γ): 1054.1%
Human T cells [1]; Table 7, 50 μM delphinidin alone
  Average IL-2 production: 370 pg/mL
Human T cells [1]; [9]
  Average IL-2 production: 87 pg/mL
  Percentage compared to the control (IL-2): 217.5%
Human T cells [1]; [10]
  IL-2 levels higher (Table 10): 117%
Jurkat T cells [2]; 50 μM, 48 hrs
  IL-2 levels higher than untreated control cells: 240%
Jurkat T cells [2]; [12]
  Average IL-2 production: 170 pg/mL
  Percentage vs. control (IL-2): 340%
Jurkat T cells [2]; [11]
  Average IL-2 production: 0.023 Abs 450 nm
  Percentage compared to the control (IL-2): 139.4%
Jurkat T cells [2]; [10]
  IL-2 levels higher (Table 11): 39.4%
Jurkat T cells [3]; 50 μM
  INF-γ levels higher than untreated control cells: 250%
Jurkat T cells [3]
  Average INF-γ production: 28 pg/mL
  Percentage vs. control (INF-γ): 350%
Jurkat T cells [5]; 10 μM delphinidin
  Average area under the curve of ratio 340/380 during 300 seconds: 100
  Percentage compared to control: 166.7%
  area under the curve higher than untreated control cells: 66.7%
Jurkat T cells [5]; 50 μM delphinidin
  Average area under the curve of ratio 340/380 during 300 seconds: 225
  Percentage compared to control: 375%
  area under the curve higher than untreated control cells: 275%
Jurkat T cells [5]; 100 μM delphinidin
  Average area under the curve of ratio 340/380 during 300 seconds: 250
  Percentage compared to control: 416.7%
  area under the curve higher than untreated control cells: 316.7%
Jurkat T cells [5]; 10, 50, 100 μM delphinidin
  Ca2+ fluxes, result in words: induced Ca^2+ fluxes in Jurkat T cells in a dose-dependent manner
Jurkat T cells [6]; 50 uM delphinidin, calcium free medium
  calcium release (FIG. 1), result in words: induced reversible calcium release
Jurkat T cells [6]; [14]
  Average AUC of ratio 340/380 during 200 seconds (calcium release): 51
  Percentage compared to the control (calcium release): 1700%
Jurkat T cells [6]; delphinidin 50 μM, BTP-2 10 uM
  AUC higher than untreated control cells (calcium release): 1700%
Jurkat T cells [7]
  Average IL-2 production: 240 pg/mL
Jurkat T cells [8]
  Average AUC of ratio 340/380 150 sec. after calcium treatments (calcium entry): 70
  Percentage compared to control (calcium entry): 184.2%

## tumor necrosis factor alpha [TNFα]
PPAR-γ
  Average percentage activity of control [PPAR-γ-Luc/TK-RL] ± SD: 283.4 ± 47.23%
